The text below walks through data of US8883782B2, “Spiro-tetracyclic ring compounds as beta-secretase modulators and methods of use” (Amgen Inc., priority 2010, dated 2014).

Experiment [1] deals with Beta Secretase enzyme (BACE) (Homo sapiens, UniProt P56817). The experiment can be described thus: In vitro enzymatic BACE FRET (fluorescence resonance energy transfer) assay. The class given is biochemical. The conditions noted are these: average IC50, enzyme assay; read-out: BACE 1 FRET assay. On the procedure: In Vitro Enzymatic Bace Fret (Fluorescence Resonance Energy Transfer) Assay (Enzyme Assay Data in the Example Table I)
Beta Secretase enzyme (BACE), sequence (P56817 46-501, species assumed): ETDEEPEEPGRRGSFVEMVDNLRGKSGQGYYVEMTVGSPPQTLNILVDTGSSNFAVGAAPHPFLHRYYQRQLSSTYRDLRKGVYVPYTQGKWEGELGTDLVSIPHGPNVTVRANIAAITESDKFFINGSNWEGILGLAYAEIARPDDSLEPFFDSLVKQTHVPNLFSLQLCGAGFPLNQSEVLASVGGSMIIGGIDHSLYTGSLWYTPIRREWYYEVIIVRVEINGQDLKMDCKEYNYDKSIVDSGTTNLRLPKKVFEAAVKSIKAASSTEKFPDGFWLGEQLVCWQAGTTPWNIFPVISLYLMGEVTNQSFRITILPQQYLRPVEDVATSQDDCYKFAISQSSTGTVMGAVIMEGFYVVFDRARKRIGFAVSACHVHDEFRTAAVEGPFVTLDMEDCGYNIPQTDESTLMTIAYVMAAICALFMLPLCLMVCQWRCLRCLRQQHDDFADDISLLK
The assay buffer used in this screen is 0.05 M acetate, pH 4.2, 10% DMSO final, 100 uM genapol (which is a nonionic detergent, below its Critical Micelle Concentration). […] This assay is effectively started by the addition of FRET substrate (50 nM) and the combination is incubated for one hour. The FRET assay is terminated with by addition of Tris buffer, which raises the pH to neutrality, and the fluorescence is determined. The FRET substrate is a peptide with commercially available fluorophore and quencher, on opposite sides of the BACE cleavage site.

Experiment [2] concerns Aβ40 in conditioned medium of cells stably expressing Amyloid Precursor Protein (APP). Put plainly: In vitro BACE cell-based assay (Aβ40 in conditioned medium, sandwich ELISA). To be noted: Homo sapiens, read-out: HEK cell assay. The procedure:
In Vitro BACE Cell-Based Assay
The cell-based assay measures inhibition or reduction of Aβ40 in conditioned medium of test compound treated cells expressing amyloid precursor protein.
Cells stably expressing Amyloid Precursor Protein (APP) were plated at a density of 40K cells/well in 96 well plates (Costar). The cells were cultivated for 24 hours at 37° C. and 5% CO2 in DMEM supplemented with 10% FBS. The test compounds were then added to cells in 10-point dose response concentrations with the starting concentration being either 100 μM or 10 μM. The compounds were diluted from stock solutions in DMSO and the final DMSO concentration of the test compounds on cells was 0.1%. […] The IC50 of the compound was calculated from the percent of control or percent inhibition of Aβ 40 as a function of the concentration of the test compound.
The sandwich ELISA to detect Aβ 40 was performed in 96 well microtiter plates, which were pre-treated with goat anti-rabbit IgG (Pierce). The capture and detecting antibody pair that were used to detect Aβ 40 from cell supernatants were affinity purified pAb40 (Biosource) and biotinylated 6E10 (Signet Labs Inc.), respectively. The optimal concentration for the pAb40 antibody was 3 μg/ml in Superblock/TBS (Pierce) that was supplemented with 0.05% Tween 20 (Sigma).
Cellular supernatants were incubated with the capture antibody for 3 h at 4° C., followed by 3 wash steps in TBS-tween (0.05%). The detecting antibody incubation was for 2 h at 4° C., again followed by the wash steps as described previously. The final readout of the ELISA is Time-Resolved Fluorescence (counts per minute) using Delfia reagents Streptavidin-Europium and Enhancement solutions (Perkin Elmer) and the Victor 2 multilabel counter (Perkin Elmer).
In general terms: ELISA stands for enzyme-linked immunosorbent assay.

Setting [3] is: HEK293, average IC50, HEK cells.

Structures are written as SMILES. Read-outs that look alike come from different tables or passages of the source.

Take `NC1=N[C@@]2(CO1)c1cc(-c3cccnc3F)ccc1Oc1cnc(-c3cc(F)nc(F)c3)cc12` [Example 541, (5S)-3-(2,6-difluoro-4-pyridinyl)-7-(2-fluoro-3-pyridinyl)spiro[chromeno[2,3-c]pyridine-5,4′-[1,3]oxazol]-2′-amine]: the IC50 in experiment [1] stood at 0.4 nM; in experiment [2] (setting [3]) it was 12.3 nM.

On to `CC(C)(C#N)COc1cc2c(c(F)c1F)Oc1ccc(-c3cccnc3)cc1[C@]21COC(N)=N1` [Example 1008, 3-(((4R)-2-amino-3′,4′-difluoro-7′-(3-pyridinyl)spiro[1,3-oxazole-4,9′-xanthen]-2′-yl)oxy)-2,2-dimethylpropanenitrile], for which the IC50 in experiment [1] turned out to be 17.9 nM; in experiment [2] (HEK293, average IC50), 775 nM.

In the case of `COc1nc(Cl)cc2c1Oc1ccc(Br)cc1[C@@]21COC(N)=N1` [Example 710, (S)-7-bromo-3-chloro-1-methoxy-5′H-spiro[chromeno[2,3-c]pyridine-5,4′-oxazol]-2′-amine], the IC50 in experiment [1] was 6890 nM; in experiment [2] (HEK293, average IC50), at least 10000 nM.

`CC1(COc2cc(F)c3c(c2)[C@]2(COC(N)=N2)c2cc(-c4cnccc4F)ccc2O3)COC1` [Example 604, (4S)-4′-fluoro-7′-(4-fluoro-3-pyridinyl)-2′-((3-methyl-3-oxetanyl)methoxy)spiro[1,3-oxazole-4,9′-xanthen]-2-amine]: the results for the IC50 in experiment [1] and in experiment [2] (setting [3]) were 0.6 nM and 5 nM, respectively.

For the compound `COc1ccc(Cl)c(-c2ccc3c(c2)[C@@]2(COC(N)=N2)c2cc(C4=CCOCC4)cnc2O3)c1` [Example 499, (5S)-7-(2-chloro-5-methoxyphenyl)-3-(3,6-dihydro-2H-pyran-4-yl)spiro[chromeno[2,3-b]pyridine-5,4′-[1,3]oxazol]-2′-amine], the IC50 in experiment [1] was found to be 2.2 nM; in experiment [2] (setting [3]), 22.7 nM.

Regarding `NC1=N[C@@]2(CO1)c1cc(-c3cccnc3F)ccc1Oc1c(F)cc([C@@H]3CCCOC3)cc12` [Example 286, (4S)-4′-fluoro-7′-(2-fluoro-3-pyridinyl)-2′-((3S)-tetrahydro-2H-pyran-3-yl)spiro[1,3-oxazole-4,9′-xanthen]-2-amine], the IC50 amounted to 1.9 nM in experiment [1] and 15.8 nM in experiment [2] (HEK293, average IC50).

As to `COc1ccc(-c2cc3c(cn2)Oc2ccc(-c4cccnc4F)cc2[C@@]32COC(N)=N2)cc1` [Example 568, (5S)-7-(2-fluoro-3-pyridinyl)-3-(4-methoxyphenyl)spiro[chromeno[2,3-c]pyridine-5,4′-[1,3]oxazol]-2′-amine], the IC50 in experiment [1] was 2.3 nM; in experiment [2] (setting [3]), 29.5 nM.

`CC1(C#Cc2cc(F)c3c(c2)[C@]2(COC(N)=N2)c2cc(-c4ccc(F)nc4)ccc2O3)COC1` [Example 598]: the results for the IC50 in experiment [1] and in experiment [2] (setting [3]) were 4.1 nM and 32 nM, respectively.

In the case of `NC1=N[C@]2(CO1)c1cc(C3=CCCOC3)cc(F)c1Oc1ccc(-c3cccnc3F)c(F)c12` [Example 1048, (4R)-7′-(5,6-dihydro-2H-pyran-3-yl)-1′,5′-difluoro-2′-(2-fluoro-3-pyridinyl)spiro[1,3-oxazole-4,9′-xanthen]-2-amine], the IC50 turned out to be 3.9 nM in experiment [1] and 36 nM in experiment [2] (HEK293, average IC50).

Take `NC1=N[C@]2(CS1)c1cc(-c3cccnc3F)c(F)cc1Oc1c(F)cc(N3CCOCC3)cc12` [Example 880, (4R)-3′,5′-difluoro-2′-(2-fluoro-3-pyridinyl)-7′-(4-morpholinyl)spiro[1,3-thiazole-4,9′-xanthen]-2-amine]: the IC50 in experiment [1] is 1230 nM; in experiment [2] (setting [3]) it was at least 10000 nM.

For `NC1=N[C@@]2(CS1)c1cc(-c3cncc(F)c3)ccc1Oc1ncc(Br)cc12` [Example 965, (5S)-3-bromo-7-(5-fluoro-3-pyridinyl)spiro[chromeno[2,3-b]pyridine-5,4′-[1,3]thiazol]-2′-amine], the values for the IC50 in experiment [1] and in experiment [2] (setting [3]) were 23.3 nM and 785 nM, respectively.

With `NC1=N[C@@]2(CO1)c1cc(-c3ccc(F)nc3)ccc1Oc1c(F)cc(OC[C@H]3CC3(F)F)cc12` [Example 261, (4S)-2′-(((1R)-2,2-difluorocyclopropyl)methoxy)-4′-fluoro-7′-(6-fluoro-3-pyridinyl)spiro[1,3-oxazole-4,9′-xanthen]-2-amine], the IC50 in experiment [1] was 6.8 nM; in experiment [2] (HEK293, average IC50), 71.8 nM.
